Experiments:
Format in all cases: cell-based
HTT CJ mRNA = test: Gene panel canonical junction qPCR assay: decrease in HTT CJ mRNA; conditions: protocol as for Table 2, read-out: HTT (IC50, decrease in CJ mRNA levels)
Summary of the method: (§1)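 A673 or K562 cells were treated 24 h at 37 °C with an 11-point 3-fold dilution series (top dose 10 uM final, DMSO ≤0.25%). Lysates went to RT-qPCR for the canonical exon-exon junction transcript, normalized to GAPDH, GUSB or PPIA. Levels were taken as ΔΔCt versus DMSO control and converted to RQ via 2^(−ΔΔCt).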

[1] = system: HTT mRNA, canonical junction (CJ); test: Splicing assay (RT-qPCR): decrease in HTT canonical junction (CJ) mRNA; conditions: A673 or K562 cell line, 24 hours treatment, top dose 10 uM; concentration having 50% response in CJ decrease
Summary of the method: (§2)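 A673 (DMEM, 10% FBS) or K562 (IMDM, 10% FBS) cells treated 24 h at 37 °C with 11-point 3-fold dilutions, top 10 uM, ≤0.25% DMSO. Lysates analysed by one-step RT-qPCR for HTT CJ and AJ isoforms. Normalised to PPIA (A673) or GAPDH/GUSB (K562).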

Target C CJ mRNA = test: Gene panel canonical junction qPCR assay: decrease in Target C CJ mRNA; conditions: protocol as for Table 2, read-out: Target C (IC50, decrease in CJ mRNA levels)
Summary of the method: as §1

[2] = system: HTT mRNA, alternative junction (AJ); test: Splicing assay (RT-qPCR): increase in HTT alternative junction (AJ) mRNA; conditions: A673 or K562 cell line, 24 hours treatment, top dose 10 uM; concentration having 50% response in AJ increase
Summary of the method: as §2

SMN2 CJ mRNA = test: Gene panel canonical junction qPCR assay: decrease in SMN2 CJ mRNA; conditions: protocol as for Table 2, read-out: SMN2 (IC50, decrease in CJ mRNA levels)
Summary of the method: as §1

Row | IC50 (HTT CJ mRNA) [nM] | IC50 (Target C CJ mRNA) [nM] | IC50 (SMN2 CJ mRNA) [nM] | SMILES | AC50 [1] [nM] | AC50 [2] [nM]
1 | 100 to 1000 | 1000 to 10000 | < 100 | Cc1cc2c(N3CCNCC3)ccc(C(=O)Nc3cc(F)c4nc(C)cn4c3)c2nn1 [Compound 159] | 100 to 1000 | 100 to 1000
2 | 100 to 1000 | 100 to 1000 | < 100 | Cc1cn2cc(NC(=O)c3ccc(N4CCNC(C)C4)c4ccnnc34)cc(F)c2n1 (centres unmarked) [Compound 128, N-[8-fluoro-2-methylimidazo[1,2-a]pyridin-6-yl]-5-(3-methylpiperazin-1-yl) cinnoline-8-carboxamide] | 100 to 1000 | 100 to 1000
3 | > 10000 | > 10000 | > 10000 | Cn1cc2ccc(NC(=O)c3ccc(N4CCNCC4)c4ccnnc34)cc2n1 [Compound 115, N-(2-methylindazol-6-yl)-5-(piperazin-1-yl) cinnoline-8-carboxamide] | > 10000 | > 10000
4 | 1000 to 10000 | 1000 to 10000 | < 100 | Cc1nc2c(F)cc(NC(=O)c3ccc(N4CCNCC4)c4ccnnc34)cc2o1 [Compound 117, N-(4-fluoro-2-methyl-1,3-benzoxazol-6-yl)-5-(piperazin-1-yl) cinnoline-8-carboxamide] | 1000 to 10000 | 1000 to 10000

— patent publication US20240226098A1, “COMPOUNDS AND METHODS FOR MODULATING SPLICING” (REMIX THERAPEUTICS INC., priority 2020, published 2024)
